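Briefly, cells in 96-well plates were exposed to five compound concentrations for 48 h, and endpoints were estimated by linear interpolation. TGI: total growth inhibition.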 *1 amine or outer side, *2 acyl side, *3 side chain or, on linkers, in order; H or OH if unused. Where a SMILES comes first, the peptide text is derived from it. Bridges are numbered along the chain shown (N, C = ends). [ ]: non-standard residue; d: D form. The star is where a group is joined. X38 = CC[C@H](C)[C@@H](N[*:1])[C@@H](O)CC(=O)[*:2]; NMeY = CN[C@@H](Cc1ccc(O)cc1)C(=O)O; dNMeL = CN[C@H](CC(C)C)C(=O)O; Hiv = CC(C)[C@H](O)C(=O)O; Pyruvoyl = CC(=O)C(=O)*
Tests used:
Assay in all cases: DTP human tumour cell line panel, 48 h
SW-620 colon = system: SW-620 colon
HT29 colon = system: HT29 colon
TK-10 renal = system: TK-10 renal
OVCAR-5 ovarian = system: OVCAR-5 ovarian
A498 renal = system: A498 renal
RPMI-8226 leukemia = system: RPMI-8226 leukemia
COLO 205 colon = system: COLO 205 colon
RXF 393 renal = system: RXF 393 renal
SK-OV-3 ovarian = system: SK-OV-3 ovarian
CCRF-CEM leukemia = system: CCRF-CEM leukemia

Row | Structure (SMILES) | TGI (SW-620 colon) [µM] | TGI (HT29 colon) [µM] | TGI (TK-10 renal) [µM] | TGI (OVCAR-5 ovarian) [µM] | TGI (A498 renal) [µM] | TGI (RPMI-8226 leukemia) [µM] | TGI (COLO 205 colon) [µM] | TGI (RXF 393 renal) [µM] | TGI (SK-OV-3 ovarian) [µM] | TGI (CCRF-CEM leukemia) [µM]
1 | NCCCNCCCNCCCN | > 100 | > 100 | > 100 | > 100 | > 100 | 41.1 | > 100 | > 100 | > 100 | 
2 | CC[C@H](C)[C@H]1NC(=O)[C@@H](NC(=O)[C@@H](CC(C)C)N(C)C(=O)[C@@H]2CCCN2C(=O)C(C)=O)[C@@H](C)OC(=O)[C@H](Cc2ccc(OC)cc2)N(C)C(=O)[C@@H]2CCCN2C(=O)[C@H](CC(C)C)NC(=O)[C@H](C(C)C)OC(=O)C[C@@H]1O (Pyruvoyl-P[dNMeL]T[X38][Hiv]LP[NMeY](Me); ester 3-C) |  | 0.0795 | 0.0643 | 0.167 | 0.0904 | 0.0465 | 0.00621 | 0.0122 | 0.294 | 
3 | CC#COP(=O)(OCC)OCC | > 100 | > 100 | > 100 | > 100 | > 100 | > 100 | > 100 |  | > 100 | > 100
4 | O=C(O)c1c[nH]c2c(Sc3ccccc3)nccc2c1=O | > 100 | > 100 | > 100 | > 100 | > 100 |  | > 100 |  | > 100 | > 100
5 | COc1ccc(OC)c2sc(N3C(=O)/C(=C/Cc4ccco4)N=C3c3ccccc3)nc12 | > 100 | > 100 | > 100 | > 100 | > 100 | > 100 | > 100 |  | > 100 | 26.9
6 | NCCCCNCCCN1CC1 | > 100 | > 42 | > 100 | > 82.9 | 1.84 | > 100 | 3.71 | 1.05 |  | 
7 | CSC1=N[C@H](c2ccccc2)CS1 | > 100 | > 100 | > 100 | > 100 | > 100 | > 100 | > 100 |  |  | > 100
8 | C[C@@]12C=CC3C/C(=N\C(N)=S)C=C(CCCC4OCCO4)[C@]3(CC1)C2 (stereo partly specified) | 48.9 | 25.4 | 49.4 | 33.3 | 33.1 | 50.8 | 26 | 31.7 | > 100 | 
9 | Cc1c2cnccc2c(C)c2c1[nH]c1ccc(O)cc12 | 7.03 | > 10 | > 10 | > 10 |  | > 10 | > 10 | 7.24 | > 10 | > 10
10 | COc1ccc(C2c3cc4c(cc3C(O)C3CCC(=O)N23)OCO4)cc1 (stereo unspecified) | > 100 | > 100 | > 100 | > 100 | > 100 | > 100 | > 100 |  | > 100 | > 100
11 | Cc1occc1C(=S)Nc1ccc(Cl)c(C(=O)OCC(F)(F)F)c1 | 56.3 | 33.7 | 43 | > 100 | 30.5 | 51.5 | 67.6 |  | 51.2 | 57.7
12 | CCOC(=O)/C(C)=C\[C@@]1(C)O[C@@H](C)[C@@](C)(OC(C)=O)[C@@H]1OC(C)=O | > 100 | > 100 | > 100 | > 100 | > 100 | > 100 | > 100 |  | > 100 | > 100
13 | C[C@H]1[C@H](C)N(Cc2ccccc2)P(=O)(C(O)/C=C/c2ccccc2)N1Cc1ccccc1 (stereo partly specified) | > 25 | 12.3 | 24.1 | 18.8 | 10.3 | 15.6 | 17.4 | 15.6 | > 25 | 
14 | CC(=O)OCC(=O)[C@@]1(O)CC[C@H]2[C@@H]3CCC4=CC(=O)[C@H](C)C[C@]4(C)[C@H]3[C@@H](O)C[C@@]21C | > 100 | > 100 | > 100 | > 100 | > 100 | > 100 | > 100 |  | > 100 | > 100
15 | CC1=C/C(=N\OCC(=O)O)CC(c2ccc(C(C)C)cc2)C1 (stereo unspecified) | > 100 | 37.6 |  | > 100 |  | 57.1 | > 100 | > 100 | > 100 | > 100
16 | c1ccc(Nc2nnc(CSc3nc(-c4ccccc4)c(-c4ccccc4)[nH]3)s2)cc1 |  | 30.6 | > 100 | 43.6 | 49.1 | 50.4 | 25.6 |  | 56 | 49.1
17 | CCOC(=O)NC(C(F)(F)F)(C(F)(F)F)P(=O)(OC(C)C)OC(C)C | > 100 | > 100 | > 100 | > 100 |  | > 100 | > 100 | > 100 | > 100 | > 100
18 | CC1C2CC(CC(=O)N2)C1(C)C (stereo unspecified) | > 100 | > 100 | > 100 | > 100 | > 100 |  | > 100 | > 100 | > 100 | > 100
19 | CCOC(=O)c1ccc(C(=O)OCC)n1-c1cc2cc(c1)CSCc1cc(cc(-n3c(C(=O)OCC)ccc3C(=O)OCC)c1)CSC2 | > 10 | > 10 | > 10 | > 10 |  | > 10 | > 10 | > 10 | > 10 | > 10
20 | CSc1nc2ccccc2c(=O)n1/N=C1\C(=O)N(CN2CCCCC2)c2ccc(Cl)cc21 | 52.1 | > 100 | > 100 | > 100 | 96.6 |  | 36 | 33.4 | 94.7 | > 100
21 | CCCCCCn1c(SCC)c2ccccc2c1-c1nc(F)nc(F)n1 | > 100 | > 100 | > 100 | > 100 |  | > 100 | > 100 | > 100 | > 100 | > 100
22 | O=C1CSC2(CC(/C=C/c3ccccc3O)=NN2c2cccc(S(=O)(=O)O)c2)N1c1nc2ccccc2s1 (stereo unspecified) | > 100 | > 100 | 58.5 | 64.4 | > 100 | 42.1 | > 100 | > 100 |  | 51.7
23 | O=C(O)C1CC2C3CCC2C1C3=O (stereo unspecified) | > 100 | > 100 | > 100 | > 100 | > 100 |  | > 100 | > 100 | > 100 | > 100
